Activity calls are given as the source filed them.
What was measured:
[1] = target: Eukaryotic translation initiation factor 4E (Mus musculus, UniProt P63073); assay: blockers of eIF4G binding by eIF4E – biochemical, TR-FRET, dose response (AID 855); format: functional;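 further: potency for disrupting eIF4E binding to eIF4GI seen as loss of FRET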
[2] = target: T1, Heat shock factor protein 1 (Mus musculus, UniProt P38532); assay: decrease of HSF1-responsive luciferase luminescence – cell-based, NIH3T3, dose retest, confirmation (AID 2382); format: functional;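 further: NIH3T3 fibroblasts with HSF1-driven luciferase reporter stressed by proteasome inhibitor MG132; luminescence from HSF1-driven luciferase expression after 8 hours of MG132 stress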
T1 sequence (P38532 whole entry): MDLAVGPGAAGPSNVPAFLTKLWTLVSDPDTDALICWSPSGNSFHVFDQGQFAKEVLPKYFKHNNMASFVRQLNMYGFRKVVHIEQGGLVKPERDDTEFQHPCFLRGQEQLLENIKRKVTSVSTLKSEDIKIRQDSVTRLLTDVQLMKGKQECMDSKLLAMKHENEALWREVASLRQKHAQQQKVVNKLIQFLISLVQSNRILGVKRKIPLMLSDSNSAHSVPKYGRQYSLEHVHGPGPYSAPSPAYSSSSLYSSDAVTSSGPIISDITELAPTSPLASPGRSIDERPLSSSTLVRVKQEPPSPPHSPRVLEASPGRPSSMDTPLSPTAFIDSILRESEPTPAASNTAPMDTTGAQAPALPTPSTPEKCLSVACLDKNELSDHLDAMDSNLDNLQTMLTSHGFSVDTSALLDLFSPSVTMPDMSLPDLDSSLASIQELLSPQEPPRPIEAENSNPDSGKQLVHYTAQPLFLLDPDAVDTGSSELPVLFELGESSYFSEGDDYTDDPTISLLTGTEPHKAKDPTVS

Cytochrome P450 2C9 [3] = target: T2, Cytochrome P450 2C9 (Homo sapiens, UniProt P11712)
[4] = target: T3, Calpain-2 catalytic subunit (Sus scrofa, UniProt P43367); assay: m-calpain protease blockers, concentration series – biochemical, fluorogenic peptide substrate, dose response (AID 1420); format: functional
T3 sequence (P43367 whole entry): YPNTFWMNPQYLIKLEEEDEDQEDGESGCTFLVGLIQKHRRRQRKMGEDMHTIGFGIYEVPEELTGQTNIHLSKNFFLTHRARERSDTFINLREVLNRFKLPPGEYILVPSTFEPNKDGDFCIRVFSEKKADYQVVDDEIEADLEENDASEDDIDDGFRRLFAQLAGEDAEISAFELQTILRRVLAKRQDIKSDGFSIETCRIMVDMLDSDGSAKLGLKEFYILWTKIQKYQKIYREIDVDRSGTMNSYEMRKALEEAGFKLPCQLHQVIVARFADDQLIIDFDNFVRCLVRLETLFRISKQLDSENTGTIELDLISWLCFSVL

[5] = target: T4, Small ubiquitin-related modifier 1 (Homo sapiens, UniProt P63165); assay: SUMO1 protein-protein binding blockers, potency – biochemical, FRET, dose response (AID 624383); format: functional; conditions: read-out: IC50_Mean
[6] = target: T4, Small ubiquitin-related modifier 1; assay: SUMO1 protein interaction blockers, potency – biochemical, fluorescence polarization, uHTS hits, dose response (AID 624382); format: functional; conditions: read-out: IC50_Mean
Cytochrome P450 2C9 [7] = target: T2, Cytochrome P450 2C9; remark: listed apart in the source
Cytochrome P450 3A4 = Cytochrome P450 3A4 (Homo sapiens, UniProt P08684);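 further: CYP3A4 tested as one member of a cytochrome P450 panel screen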
[8] = target: T5, DNA repair and recombination protein RAD54-like (Homo sapiens, UniProt Q92698); assay: RAD54 Holliday junction migration blockers – biochemical, fluorescence, cherry-picked samples, dose series, confirmation (AID 651657); format: functional
T5 sequence (Q92698 whole entry): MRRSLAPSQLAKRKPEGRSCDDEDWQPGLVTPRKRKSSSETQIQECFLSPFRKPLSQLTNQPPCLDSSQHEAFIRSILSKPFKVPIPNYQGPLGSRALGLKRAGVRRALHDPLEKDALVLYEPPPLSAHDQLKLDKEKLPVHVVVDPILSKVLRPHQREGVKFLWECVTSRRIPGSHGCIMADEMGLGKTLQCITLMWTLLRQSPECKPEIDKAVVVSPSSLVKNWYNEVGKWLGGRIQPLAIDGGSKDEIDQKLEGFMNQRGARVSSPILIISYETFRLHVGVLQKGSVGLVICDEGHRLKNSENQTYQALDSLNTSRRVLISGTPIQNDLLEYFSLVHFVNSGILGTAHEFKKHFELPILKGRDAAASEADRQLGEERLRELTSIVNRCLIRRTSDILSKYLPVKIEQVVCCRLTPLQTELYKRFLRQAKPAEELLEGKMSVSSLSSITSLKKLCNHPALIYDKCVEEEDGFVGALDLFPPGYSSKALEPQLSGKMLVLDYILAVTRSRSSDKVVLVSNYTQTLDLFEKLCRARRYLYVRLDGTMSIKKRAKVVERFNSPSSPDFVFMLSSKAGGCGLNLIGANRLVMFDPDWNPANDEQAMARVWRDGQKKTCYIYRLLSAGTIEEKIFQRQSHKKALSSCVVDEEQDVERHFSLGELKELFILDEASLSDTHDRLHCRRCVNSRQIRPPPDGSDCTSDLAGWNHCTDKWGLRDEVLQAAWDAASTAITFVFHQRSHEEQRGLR

[9] = target: T6, Corticotropin-releasing factor receptor 2/Corticotropin-releasing factor-binding protein (Homo sapiens, UniProt P24387+Q13324); assay: activators of CRF receptor 2 with binding protein – uHTS hits, confirmation (AID 602473); format: functional; conditions: read-out: EC50_Mean
T6 sequence (Q13324 whole entry): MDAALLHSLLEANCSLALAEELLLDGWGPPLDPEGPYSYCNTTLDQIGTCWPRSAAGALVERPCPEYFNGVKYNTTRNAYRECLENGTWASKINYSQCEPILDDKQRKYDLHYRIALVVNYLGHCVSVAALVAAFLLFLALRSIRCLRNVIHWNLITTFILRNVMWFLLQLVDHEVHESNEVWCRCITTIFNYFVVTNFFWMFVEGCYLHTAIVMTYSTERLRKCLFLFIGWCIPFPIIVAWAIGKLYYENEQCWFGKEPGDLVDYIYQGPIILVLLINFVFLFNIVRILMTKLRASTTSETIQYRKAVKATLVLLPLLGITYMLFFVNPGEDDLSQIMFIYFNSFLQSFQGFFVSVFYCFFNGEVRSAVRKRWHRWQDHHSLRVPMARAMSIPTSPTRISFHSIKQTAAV
T6 sequence (P24387 whole entry): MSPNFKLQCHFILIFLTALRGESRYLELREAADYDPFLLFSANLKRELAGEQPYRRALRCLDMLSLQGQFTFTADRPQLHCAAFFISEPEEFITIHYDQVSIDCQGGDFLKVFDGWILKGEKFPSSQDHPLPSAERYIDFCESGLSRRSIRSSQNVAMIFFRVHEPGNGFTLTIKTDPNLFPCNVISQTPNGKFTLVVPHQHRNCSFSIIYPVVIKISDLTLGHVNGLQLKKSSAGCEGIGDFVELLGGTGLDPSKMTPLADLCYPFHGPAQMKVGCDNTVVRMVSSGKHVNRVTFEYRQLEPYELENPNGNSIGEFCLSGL

[10] = target: T6, Corticotropin-releasing factor receptor 2/Corticotropin-releasing factor-binding protein; assay: Dose Response confirmation of uHTS hits for small molecule antagonists of the CRF-binding protein and CRF-R2 receptor complex.; format: functional; conditions: read-out: IC50_Mean
Cytochrome P450 1A2 = target: T7, Cytochrome P450 1A2 (Homo sapiens, UniProt P05177);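 further: PubChem cytochrome P450 panel assay, CYP1A2 panel member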
T7 sequence (P05177 whole entry): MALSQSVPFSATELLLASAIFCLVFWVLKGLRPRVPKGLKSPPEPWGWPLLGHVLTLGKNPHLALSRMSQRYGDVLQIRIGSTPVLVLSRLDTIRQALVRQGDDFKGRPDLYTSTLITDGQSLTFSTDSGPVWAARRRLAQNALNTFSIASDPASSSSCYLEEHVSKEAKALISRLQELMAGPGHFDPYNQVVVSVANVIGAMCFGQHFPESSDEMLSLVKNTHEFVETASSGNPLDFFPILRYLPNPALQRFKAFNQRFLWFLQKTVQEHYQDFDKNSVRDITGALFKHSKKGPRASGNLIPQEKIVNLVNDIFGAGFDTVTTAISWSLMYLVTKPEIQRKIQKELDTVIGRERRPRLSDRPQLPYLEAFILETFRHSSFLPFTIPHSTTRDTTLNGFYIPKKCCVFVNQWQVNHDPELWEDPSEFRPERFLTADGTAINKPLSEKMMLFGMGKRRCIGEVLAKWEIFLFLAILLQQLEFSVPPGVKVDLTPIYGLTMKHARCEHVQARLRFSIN

HT-1080 = assay: HT1080 cell viability loss – fluorescence readout (AID 620); format: functional, cell-based; conditions: Homo sapiens
[11] = target: Luciferin 4-monooxygenase (Photinus pyralis, UniProt P08659); assay: Counter Screen for Luciferase-based Assay Positives. [Related pubchem assays: 620, 618, 411 ]
[12] = target: Induced myeloid leukemia cell differentiation protein Mcl-1 (Homo sapiens, UniProt Q07820); format: functional
[13] = target: T8, DNA repair protein RAD52 homolog (Homo sapiens, UniProt P43351); format: functional, biochemical
T8 sequence (P43351 whole entry): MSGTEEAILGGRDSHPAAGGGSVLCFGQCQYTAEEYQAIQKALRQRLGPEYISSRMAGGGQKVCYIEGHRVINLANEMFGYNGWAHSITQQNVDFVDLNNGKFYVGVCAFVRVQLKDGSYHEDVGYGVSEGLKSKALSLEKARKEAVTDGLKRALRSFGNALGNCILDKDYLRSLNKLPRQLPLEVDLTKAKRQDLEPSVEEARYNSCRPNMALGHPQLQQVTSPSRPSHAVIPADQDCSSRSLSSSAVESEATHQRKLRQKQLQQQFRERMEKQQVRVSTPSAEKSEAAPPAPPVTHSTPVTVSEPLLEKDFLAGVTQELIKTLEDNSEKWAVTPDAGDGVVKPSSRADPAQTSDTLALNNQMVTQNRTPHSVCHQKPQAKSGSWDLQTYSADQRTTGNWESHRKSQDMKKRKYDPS

[14] = blockers of HIV-1 envelope-mediated cell-cell fusion – cherry-pick, dose response (AID 652057); format: functional, cell-based
[15] = HIV-1 AD8 envelope cell-cell fusion blockers – cherry-pick, dose response (AID 652062); format: functional, cell-based;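 further: luciferase signal from cell-cell fusion driven by HIV-1 clade B AD8 Env; potency is for inhibitors of fusion seen as a drop in luminescence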

Chain of Eukaryotic translation initiation factor 4E (P63073 whole entry): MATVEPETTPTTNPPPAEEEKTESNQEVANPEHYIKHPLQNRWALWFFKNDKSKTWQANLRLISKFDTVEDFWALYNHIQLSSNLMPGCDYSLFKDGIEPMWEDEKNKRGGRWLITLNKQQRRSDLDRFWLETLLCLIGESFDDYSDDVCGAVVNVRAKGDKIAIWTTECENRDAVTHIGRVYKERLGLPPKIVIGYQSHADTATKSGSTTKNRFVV
Chain of Induced myeloid leukemia cell differentiation protein Mcl-1 (Q07820 whole entry): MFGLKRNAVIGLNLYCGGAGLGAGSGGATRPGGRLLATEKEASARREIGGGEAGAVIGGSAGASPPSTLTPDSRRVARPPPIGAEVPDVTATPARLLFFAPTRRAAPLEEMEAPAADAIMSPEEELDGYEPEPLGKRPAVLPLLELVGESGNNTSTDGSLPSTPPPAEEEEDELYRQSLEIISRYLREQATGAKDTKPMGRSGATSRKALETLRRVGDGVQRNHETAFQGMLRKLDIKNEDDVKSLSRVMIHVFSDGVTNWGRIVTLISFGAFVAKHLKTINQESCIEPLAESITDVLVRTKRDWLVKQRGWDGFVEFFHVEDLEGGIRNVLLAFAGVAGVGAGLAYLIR
T2 sequence (P11712 whole entry): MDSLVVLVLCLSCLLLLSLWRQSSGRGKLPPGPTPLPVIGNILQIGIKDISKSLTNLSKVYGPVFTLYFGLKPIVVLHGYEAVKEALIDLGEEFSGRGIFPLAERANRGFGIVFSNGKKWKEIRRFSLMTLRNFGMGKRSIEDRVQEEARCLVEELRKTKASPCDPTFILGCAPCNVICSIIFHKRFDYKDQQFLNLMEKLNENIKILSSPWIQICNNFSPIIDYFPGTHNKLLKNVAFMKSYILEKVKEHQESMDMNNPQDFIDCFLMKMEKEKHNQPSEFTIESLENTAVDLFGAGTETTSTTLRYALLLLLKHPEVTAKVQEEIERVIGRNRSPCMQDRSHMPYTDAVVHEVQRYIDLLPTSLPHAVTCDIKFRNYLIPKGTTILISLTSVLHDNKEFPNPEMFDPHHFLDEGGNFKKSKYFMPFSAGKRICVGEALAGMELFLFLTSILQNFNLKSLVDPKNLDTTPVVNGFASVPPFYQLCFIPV
T4 sequence (P63165 whole entry): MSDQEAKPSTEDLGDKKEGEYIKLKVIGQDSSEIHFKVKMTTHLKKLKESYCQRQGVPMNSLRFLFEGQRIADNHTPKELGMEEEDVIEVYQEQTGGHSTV
Chain of Cytochrome P450 3A4 (P08684 whole entry): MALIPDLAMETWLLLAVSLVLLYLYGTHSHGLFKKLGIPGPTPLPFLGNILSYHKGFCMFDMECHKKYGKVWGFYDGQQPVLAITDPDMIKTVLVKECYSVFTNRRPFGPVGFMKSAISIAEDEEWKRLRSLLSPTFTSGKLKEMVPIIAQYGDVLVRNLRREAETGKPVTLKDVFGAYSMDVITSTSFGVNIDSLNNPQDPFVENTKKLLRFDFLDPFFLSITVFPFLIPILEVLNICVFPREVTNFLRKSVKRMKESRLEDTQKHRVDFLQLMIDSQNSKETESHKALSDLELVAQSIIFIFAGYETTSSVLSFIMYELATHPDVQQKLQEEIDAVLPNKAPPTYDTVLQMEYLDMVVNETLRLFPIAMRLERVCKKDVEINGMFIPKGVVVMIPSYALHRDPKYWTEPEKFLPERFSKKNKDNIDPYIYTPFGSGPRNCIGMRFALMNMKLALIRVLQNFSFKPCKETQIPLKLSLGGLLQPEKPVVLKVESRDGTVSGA
Chain of Luciferin 4-monooxygenase (P08659 whole entry): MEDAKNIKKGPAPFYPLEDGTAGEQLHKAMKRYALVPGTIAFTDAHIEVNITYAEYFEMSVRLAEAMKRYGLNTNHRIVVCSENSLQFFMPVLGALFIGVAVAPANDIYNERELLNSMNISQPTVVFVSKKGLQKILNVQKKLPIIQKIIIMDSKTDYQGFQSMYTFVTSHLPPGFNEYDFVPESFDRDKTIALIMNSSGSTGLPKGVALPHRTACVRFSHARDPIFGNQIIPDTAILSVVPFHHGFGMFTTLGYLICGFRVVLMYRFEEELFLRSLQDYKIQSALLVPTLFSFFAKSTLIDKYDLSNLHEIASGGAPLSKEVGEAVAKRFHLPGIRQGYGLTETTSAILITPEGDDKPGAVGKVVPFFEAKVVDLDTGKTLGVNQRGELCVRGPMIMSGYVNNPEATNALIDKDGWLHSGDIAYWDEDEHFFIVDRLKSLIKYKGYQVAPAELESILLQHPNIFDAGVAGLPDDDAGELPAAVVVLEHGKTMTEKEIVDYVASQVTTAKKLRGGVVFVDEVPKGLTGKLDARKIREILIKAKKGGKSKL

O=C(CN1C(=O)S/C(=C\c2ccc(Cl)cc2)C1=O)NNC(=O)c1ccccc1O
IC50 [1]: > 64 µM (inactive)

CC(C)C(NC(=O)C12CC3CC(CC(C3)C1)C2)C(=O)NC1=NCCS1 (stereo not drawn)
EC50 [2]: > 195 µM (not active)
AC50 (Cytochrome P450 2C9 [3]): 25.1 µM (inconclusive)
IC50 [1]: > 64 µM (inactive)

CCCC(=O)NCc1ccccc1Cl
IC50 [4]: 36.3 µM (not active)

CN(C(=O)COC(=O)c1ccc(-c2ccc(O)cc2)cc1)C1CCS(=O)(=O)C1 (stereo not drawn)
IC50 [5]: 16.1 µM (active)
IC50 [6]: > 66.6 µM (inactive)

COc1ccc([N+](=O)[O-])cc1NC(=O)CC(C)c1ccccc1 (stereo not drawn)
AC50 (Cytochrome P450 2C9 [7]): inconclusive

Cc1ccc(C2=NNC(=O)C(c3c[nH]c4ccccc34)C2)cc1 (stereo not drawn)
IC50 [4]: 46.4 µM (not active)

COc1ccc(OC)c(Nc2ncnc3sc(-c4ccccc4)cc23)c1
IC50 [1]: > 64 µM (inactive)

FC(F)(F)c1cnc(/C=C/Nc2ccccc2Cl)c(Cl)c1
AC50 (Cytochrome P450 3A4): 31.6 µM (inconclusive)
AC50 (Cytochrome P450 2C9 [7]): inconclusive

CCN1CCN(CCCNC(=O)c2cc3c(=O)oc4ccc(C)cc4c3s2)CC1
AC50 [8]: 36.3 µM (active)

Cc1ccc(N(CC(=O)NC2CCCC2)C(=O)c2ccc(C)s2)cc1
IC50 [4]: > 50 µM (not active)

CC(C)CC(c1nnnn1C1CCCC1)N1CCC(C(N)=O)CC1 (stereo not drawn)
IC50 [4]: > 50 µM (not active)

O=C1CSC(c2ccccc2F)N1c1cc(Cl)ccc1O (stereo not drawn)
EC50 [9]: > 53 µM (inactive)
IC50 [10]: > 47.1 µM (inactive)
AC50 (Cytochrome P450 2C9 [7]): inconclusive
AC50 (Cytochrome P450 1A2): 39.8 µM (inconclusive)

Cc1ccccc1Cn1nnc(-c2cccc(C(=O)O)c2)n1
EC50 (HT-1080): > 50 µM (not active)
EC50 [11]: > 100 µM (not active)

Cn1c(N)c(C(=O)COC(=O)C2CCCCC2)c(=O)n(C)c1=O
IC50 [4]: 6.73 µM (active)

COc1ccc2nc(NC(=O)Nc3cccc4ccccc34)sc2c1
IC50 [12]: 5.86 µM (not active)

COc1ccccc1CNc1cc(-c2ccccc2OC)ncn1
AC50 (Cytochrome P450 2C9 [7]): inconclusive

Cc1cc(C(=O)OCC(=O)Nc2sc3c(c2C#N)CCC(C)C3)c2ccccc2n1 (stereo not drawn)
IC50 [12]: 5.16 µM (active)

O=C(C1CCN(S(=O)(=O)c2cccc3nsnc23)CC1)N1CCN(c2ccccc2F)CC1
AC50 (Cytochrome P450 2C9 [7]): inconclusive

O=C(Cn1c(=O)n(-c2ccccc2)c(=O)c2sccc21)N1CCCC1
IC50 [12]: 11.6 µM (not active)

CC(C)CC(=O)Nc1nnc(SCC(=O)Nc2ccc(F)cc2)s1
IC50 [4]: > 50 µM (not active)

CCNc1nc(NC(C)C)nc(Oc2ccc(=O)n(C)n2)n1
IC50 [1]: 50 µM (inactive)

Nc1ccccc1-c1nnc(SCc2ccccc2F)nc1O
IC50 [1]: > 64 µM (inactive)

CCC(=O)Nc1ccc(C(=O)N2CCN(C(=O)c3ccco3)CC2)cc1
IC50 [4]: 25.3 µM (not active)

NCCCC[C@H]1CN=C(S)N1CCc1cc(C(F)(F)F)cc(C(F)(F)F)c1
AC50 [13]: 17.4 µM (active)

CCN1CCN(Cc2ccc(NC(=O)c3cc(NC(=O)c4cnnc5ccccc45)cc(OC)c3)cc2C(F)(F)F)CC1
AC50 [13]: 24.3 µM (active)

COc1ccc(-c2cc(NC=O)c3ncc(-c4cccc(C(=O)NCCN(C)C)c4)n3c2)cn1
AC50 [13]: 5.69 µM (active)
AC50 [8]: 16.6 µM (active)

COc1ccc(S(=O)(=O)N(C)C[C@@H]2Oc3ccc(NC(=O)C4CCCCC4)cc3CC(=O)N([C@@H](C)CO)C[C@@H]2C)cc1
AC50 [14]: 27.6 µM (active)

COCC(=O)N1C[C@@H](C)[C@H](OC)CN(C)C(=O)c2ccc(NC(=O)c3ccc(OC)cc3)cc2OC[C@@H]1C
AC50 [15]: 5.52 µM (active)

O=C(O)c1cc(N/N=C/c2ccc(N3CCOCC3)s2)ccc1Cl
IC50 [12]: 3.84 µM (active)
